Measured values published in PubChem BioAssay (NCI).
“And” between values parts separate entries of the source, which are not always exact repeats. Identical values can stand only once.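 The compound was tested at five concentrations on cells cultured in 96-well plates, with a 48-hour exposure period. GI50 = concentration required for 50% inhibition of growth. TGI: concentration producing complete growth inhibition.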

Columns and labels:
Experiment in all cases: NCI anticancer screen, dose series, 48 h
DLD-1 colon = system: DLD-1 colon
DMS 273 small cell lung = system: DMS 273 small cell lung
KM20L2 colon = system: KM20L2 colon
LXFL 529 NSCLC = system: LXFL 529 NSCLC
BT-549 breast = system: BT-549 breast
DU-145 prostate = system: DU-145 prostate
MCF7 breast = system: MCF7 breast
MDA-MB-435 = system: MDA-MB-435
PC-3 prostate = system: PC-3 prostate
T-47D breast = system: T-47D breast

Compound | TGI (DLD-1 colon) | TGI (DMS 273 small cell lung) | TGI (KM20L2 colon) | TGI (LXFL 529 NSCLC) | also measured
Cc1ccccc1CN1CC=c2ccccc2=N1 | > 100 µM | > 100 µM | > 100 µM |  | 
CN(C)CC1(C)CC/C(=C\c2ccccc2)C1=O (centres undefined) | > 100 µM | > 100 µM | > 100 µM |  | 
CN(C)CCNC(=O)c1cccc2[nH]c(-c3ccccc3)nc12 | 39.2 µM | 39.6 µM |  |  | 
N.N.NCCCCN.O=C([O-])C1(C(=O)[O-])CCC1.O=C([O-])C1(C(=O)[O-])CCC1.[Pt+4].[Pt+4] | > 100 µM | > 100 µM | > 100 µM | > 100 µM | GI50 (DLD-1 colon): > 100 µM; GI50 (DMS 273 small cell lung): > 100 µM; GI50 (KM20L2 colon): > 100 µM; GI50 (LXFL 529 NSCLC): > 100 µM
O=C(Nc1nc2ncn(CC(COc3ccccc3)OC(=O)c3ccccc3)c2c(=O)[nH]1)c1ccccc1 (centres undefined) |  | > 100 µM | > 100 µM |  | 
O=c1cnn2c(n1)sc1ccc3ccccc3c12 | > 100 µM | > 100 µM | > 100 µM | > 100 µM | 
O=C(COc1ccccc1)NS(=O)(=O)c1ccccc1 | > 100 µM |  | > 100 µM | > 100 µM | 
COc1ccc(C(c2c(O)c3ccccc3n(C)c2=O)c2c(O)c3ccccc3n(C)c2=O)cc1 | > 100 µM | > 100 µM | 45.7 µM | > 100 µM | 
C1=Cc2nc1c(-c1ccncc1)c1ccc([n-]1)c(-c1ccncc1)c1nc(c(-c3ccncc3)c3ccc([n-]3)c2-c2ccncc2)C=C1.[Zn+2] | > 100 µM |  | > 100 µM | > 100 µM | 
O=C1C(=O)C(Br)(Br)C(Br)=C1Br | 41.4 µM | 48.1 µM | 30.7 µM | 29 µM | 
CCCCCCCC/C=C\CCCCCCCC(=O)NCCN(CCN)C(=O)CCCCCCC/C=C\CCCCCCCC | > 100 µM | > 100 µM | > 100 µM | > 100 µM | 
COc1ccc2nc3ccccc3c(NCCCCCCN(C)CCCl)c2c1 |  | 1.26 µM | 2.54 µM | 1.76 µM | 
CCN(CC)C(=O)COc1ccc(Br)cc1Br | > 100 µM | > 100 µM | > 100 µM | > 100 µM | 
COC(=O)C(Cl)=C1CC1 | 64.1 µM | > 100 µM | > 100 µM | 29.5 µM | 
O=C(Nc1c(O)[nH]c(=S)[nH]c1=O)c1ccc2ccccc2n1 | > 100 µM |  | > 100 µM | > 100 µM | 
CC(C)(C)C(=O)C1CC(=O)c2ccccc2C1=O (centres undefined) | > 100 µM |  | > 100 µM |  | 
Cc1ccc(Cl)c(NC(=O)C(=O)C(C(=O)c2ccncc2)C2OC(=O)c3ccccc32)c1 (centres undefined) | > 100 µM |  |  | > 100 µM | 
Cc1cc(Cl)ccc1N=C1NC(=O)C(CC(=O)Nc2ccc(Cl)cc2Cl)S1 (centres undefined) | > 100 µM | > 100 µM | > 100 µM | > 100 µM | 
Nc1c(-c2ccc(Cl)cc2Cl)[n+]([O-])c2ccccc2[n+]1[O-] | > 100 µM | > 100 µM | > 100 µM | > 100 µM | 
CS(=O)(=O)Nc1ccc(Nc2c3ccccc3nc3ccccc23)cc1 | 24.7 µM | 14.3 µM | 18.8 µM | 18.7 µM | TGI (BT-549 breast): 39.4 µM; TGI (DU-145 prostate): > 23.1 µM; TGI (MCF7 breast): 13 µM; TGI (MDA-MB-435): 33.7 µM; TGI (PC-3 prostate): 19.3 µM; TGI (T-47D breast): 21 µM

Compound | TGI (DLD-1 colon) | TGI (DMS 273 small cell lung) | TGI (KM20L2 colon) | TGI (LXFL 529 NSCLC) | also measured
Nc1ccn(C2CC(CO)C(O)C2O)c(=O)n1 (centres undefined) | > 57.7 µM | > 57.7 µM | > 57.7 µM | > 57.7 µM | 
CO[C@@H]1[C@H](OC(=O)NC(=O)CCl)CC[C@]2(CO2)[C@H]1[C@@]1(C)O[C@@H]1CC=C(C)C | 42 µM |  | 41.5 µM | 20.9 µM | GI50 (BT-549 breast): 16.8 µM; TGI (BT-549 breast): 37.6 µM and 59.1 µM; GI50 (DLD-1 colon): 5.1 µM; GI50 (DU-145 prostate): 22.2 µM; TGI (DU-145 prostate): 29.3 µM and 46.3 µM; GI50 (LXFL 529 NSCLC): 6.1 µM; GI50 (MCF7 breast): 10.7 µM; TGI (MCF7 breast): 44.4 µM and 180 µM; GI50 (MDA-MB-435): 5.68 µM; TGI (MDA-MB-435): 29.3 µM and 36.8 µM; GI50 (PC-3 prostate): 25.3 µM; TGI (PC-3 prostate): 28.6 µM and 57.2 µM; GI50 (T-47D breast): 4.03 µM; TGI (T-47D breast): 41.9 µM and 68.9 µM
COC(=O)[C@]1(C)CCC[C@@]2(C)C1CCC1=CC3(C(C)C)CCC12OO3 (some centres undefined) | > 100 µM |  | > 100 µM | > 100 µM | 
CC1C=CC(=O)C(n2cc(F)c(=O)[nH]c2=O)O1 (centres undefined) | 45.3 µM | 47.4 µM | 37.5 µM |  | 
OCC12C3C4C1C1C2C3C41CO (centres undefined) | > 100 µM |  | > 100 µM | > 100 µM | 
CC(C)(C)c1ccc(C(O)c2ccc(C(C)(C)C)cc2)cc1 | 28.3 µM | 25.9 µM | 32.5 µM | 29 µM | 
CC(C)=CC(=O)Cc1nc2cc(C)c(C)cc2[nH]c1=O | > 100 µM | > 100 µM | > 100 µM | > 100 µM | 
COc1ccc(/C=C2\CCC(C)(CN(C)C)C2=O)cc1 (centres undefined) | > 100 µM | > 100 µM | > 100 µM | > 100 µM | 
CCOC(=O)c1cn(Cc2ccccc2)c(=O)n1Cc1ccccc1 | > 100 µM | > 100 µM | > 100 µM | > 100 µM | 
COC(=O)C1=C(CO)C2C=CC1C2 (centres undefined) | > 100 µM | > 100 µM | > 100 µM | > 100 µM | 
CC1OC(OCC2COC(O)(Oc3c(-c4ccc(O)c(O)c4)oc4cc(O)cc(O)c4c3=O)C(O)C2O)C(O)C(O)C1O (centres undefined) | > 100 µM | > 100 µM | > 100 µM | > 100 µM | 
Nc1nc2nc[nH]c2c(=O)[nH]1 | > 100 µM | > 100 µM | > 100 µM | > 100 µM | 
NC1=N/C(=C2/CCNC(=O)c3[nH]c(Br)cc32)C(=O)N1 | > 100 µM | > 100 µM | > 100 µM |  | TGI (BT-549 breast): 53.3 µM; TGI (DU-145 prostate): > 100 µM; TGI (MCF7 breast): > 100 µM; TGI (MDA-MB-435): > 55.5 µM; TGI (PC-3 prostate): > 100 µM; TGI (T-47D breast): 51.8 µM
CCCc1nc2c(C)cc(-c3nc4ccccc4n3C)cc2n1Cc1ccc(-c2ccccc2C(=O)O)cc1 |  |  |  |  | GI50 (BT-549 breast): 52.3 µM; TGI (BT-549 breast): > 100 µM; GI50 (DU-145 prostate): 44 µM; TGI (DU-145 prostate): > 100 µM; GI50 (MCF7 breast): 31.9 µM; TGI (MCF7 breast): > 100 µM; GI50 (MDA-MB-435): 33.9 µM; TGI (MDA-MB-435): > 100 µM; GI50 (PC-3 prostate): 29.4 µM; TGI (PC-3 prostate): > 100 µM; GI50 (T-47D breast): 48.5 µM; TGI (T-47D breast): > 100 µM
CCn1cnc2c(Nc3cccc(Cl)c3)nc(N[C@@H]3CCCC[C@@H]3N)nc21 |  |  |  |  | GI50 (BT-549 breast): 1.73 µM; TGI (BT-549 breast): 3.73 µM; GI50 (DU-145 prostate): 1.01 µM; TGI (DU-145 prostate): 3.15 µM; GI50 (MCF7 breast): 0.824 µM; TGI (MCF7 breast): 3.23 µM; GI50 (MDA-MB-435): 1.42 µM; TGI (MDA-MB-435): 2.82 µM; GI50 (PC-3 prostate): 1.3 µM; TGI (PC-3 prostate): 3.36 µM; GI50 (T-47D breast): 1.98 µM; TGI (T-47D breast): 5.16 µM
O=C1OC(O)C(Oc2ccc(Cl)cc2)=C1Cl (centres undefined) | > 100 µM | > 100 µM | > 100 µM | > 100 µM | 
Cc1cc(Cl)cc2c1NC(=O)C2(O)C(C)C(=O)c1ccc(Cl)cc1 (centres undefined) | > 100 µM | > 100 µM | > 100 µM | > 100 µM | 
N#CCCN(c1ccc(-c2nnc(NC(=O)CNNC(=O)CC(=O)Nc3ccccc3)s2)cc1)S(=O)(=O)c1ccccc1 | > 100 µM | > 100 µM |  | > 100 µM | 
NC(=S)N/N=C1/C(=O)N(c2ccc(Cl)cc2Cl)C(=O)C(=O)C1c1nc2ccccc2s1 (centres undefined) |  | > 100 µM | > 100 µM | > 100 µM | 
Cc1cc(O)cc2c1O[C@@]1(C)CCC3[C@@]4(C)CC[C@H](O)C(C)(C)C4CC[C@@]3(C)[C@H]1C2 (some centres undefined) | 12.6 µM | 11.6 µM |  | 7.64 µM | 
